Like-named read-outs stand apart in the source and are kept apart here.
How the values were obtained:
[1] = target: WT EZH2 (EZH2 4 protein complex: EZH2, EED, SUZ12, RbAp48) (Homo sapiens, UniProt O75530+Q09028+Q15022+Q15910); experiment: WT EZH2 nucleosome assay; assay type: biochemical
Outline: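 Radiometric methyltransferase assay: 5 nM EZH2 four-protein complex, 1.5 μM 3H-SAM, 25 μg/mL HeLa oligonucleosomes, 50 nM recombinant H1 in 100 mM Tris pH 8.5, 4 mM DTT, 0.01% Tween-20. 60 min reaction, TCA quench, filter capture, scintillation counting; IC50 from 11-point 4-parameter fit; % effect at 20 μM.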

EZH2PRC2 mutant Y641N = EZH2PRC2 mutant Y641N (Homo sapiens, UniProt Q15910, Y641N); experiment: EZH2PRC2 mutant Y641N nucleosome assay; assay type: biochemical; conditions: read-out: EZH2PCR2 Mutant Y641N IC50
Experimental: Nucleosome Assay Protocol:
A. Compound preparation • 1. Prepare 10 mM stock solutions in 100% DMSO from solid material • 2. Serial dilute 10 mM compound stocks either 2 or 3-fold in 100% DMSO to generate compounds for 11 point dose response
B. Reagent preparation • 1. Prepare 1× assay buffer containing 100 mM Tris pH 8.5, 4 mM DTT and 0.01% Tween-20 • 2. Dilute purified HeLA oligonucleosomes and recombinant histone H1 (New England Biolabs) in assay buffer to 1.67×. • 3. Dilute EZH2 4 protein complex (EZH2, EED, SUZ12, RbAp48) to 3.5× in assay buffer • 4. Prepare 10×^3H SAM solution in assay buffer using 0.94 μCi/well of radioactive SAM (Perkin Elmer) and sufficient non-labeled SAM (Sigma) for 1.5 μM final concentration. • 5. Dilute TCA to 20% in DI water
C. Enzyme reaction • 1. Final reaction conditions are 5 nM EZH2 4-protein complex, 1.5 μM SAM, 25 μg/mL oligonucleosomes, 50 nM rH1 in a 50 μl reaction volume. • 2. Add 1 μl of diluted compound to the assay plate (96-well V-bottom polypropylene plates) or 1 μl of DMSO for control wells. • 3. Add 30 μl of nucleosomes to the assay plate • 4. Add 14 μl of EZH2 4 protein complex to the assay plate • 5. Add 5 μl of ^3H SAM to start the reaction. • 6. Stop the reaction after 60 minutes with the addition of 100 μl of 20% TCA • 7. Transfer 150 μl of quenched reaction into a prepared filterplate (Millipore #MSIPN4B10) • 8. Apply vacuum to the filterplate to filter the reaction mix through the membrane. • 9. Wash the filterplate with 8×200 μl of PBS, blot dry and dry in an oven for 30 minutes • 10. Add 50 μl of microscint-20 scintillation fluid (Perkin Elmer) to each well, wait 30 minutes and count on a liquid scintillation counter.
D. Data analysis • 1. IC50 values were determined by fitting the data to a 4-parameter IC50 equation using proprietary curve fitting software.
Wild type (WT) EZH2% Effect at 20 μM and IC50 values (μM) generated in WT EZH2 or EZH2PRC2 mutant Y641N nucleosome assays are provided in Table 3 below. A blank entry in the table indicates the data was not generated in that assay.

[2] = nucleosome assay, 5 nM EZH2 4-protein complex, 1.5 μM SAM, read-out: WT EZH2 IC50

Chain of WT EZH2 (EZH2 4 protein complex: EZH2, EED, SUZ12, RbAp48) (Q15910 whole entry): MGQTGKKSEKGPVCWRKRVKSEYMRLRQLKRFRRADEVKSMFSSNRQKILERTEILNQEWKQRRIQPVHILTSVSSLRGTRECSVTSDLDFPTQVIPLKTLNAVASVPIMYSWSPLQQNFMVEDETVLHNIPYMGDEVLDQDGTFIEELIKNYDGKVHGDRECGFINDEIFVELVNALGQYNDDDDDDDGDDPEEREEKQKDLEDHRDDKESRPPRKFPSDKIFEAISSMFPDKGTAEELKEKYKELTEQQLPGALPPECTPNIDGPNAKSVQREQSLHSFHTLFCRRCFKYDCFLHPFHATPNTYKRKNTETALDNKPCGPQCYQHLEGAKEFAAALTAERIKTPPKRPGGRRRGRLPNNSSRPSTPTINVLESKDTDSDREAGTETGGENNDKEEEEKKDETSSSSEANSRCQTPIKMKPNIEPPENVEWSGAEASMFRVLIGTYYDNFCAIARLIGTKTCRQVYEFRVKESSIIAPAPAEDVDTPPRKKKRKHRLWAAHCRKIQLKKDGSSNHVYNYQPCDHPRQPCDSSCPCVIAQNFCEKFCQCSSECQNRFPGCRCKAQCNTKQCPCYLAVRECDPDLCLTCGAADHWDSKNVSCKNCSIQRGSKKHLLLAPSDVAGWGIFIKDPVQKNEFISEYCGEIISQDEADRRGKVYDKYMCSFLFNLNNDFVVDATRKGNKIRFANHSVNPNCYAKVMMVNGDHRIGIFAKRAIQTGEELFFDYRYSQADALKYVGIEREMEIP
Chain of WT EZH2 (EZH2 4 protein complex: EZH2, EED, SUZ12, RbAp48) (O75530 whole entry partner): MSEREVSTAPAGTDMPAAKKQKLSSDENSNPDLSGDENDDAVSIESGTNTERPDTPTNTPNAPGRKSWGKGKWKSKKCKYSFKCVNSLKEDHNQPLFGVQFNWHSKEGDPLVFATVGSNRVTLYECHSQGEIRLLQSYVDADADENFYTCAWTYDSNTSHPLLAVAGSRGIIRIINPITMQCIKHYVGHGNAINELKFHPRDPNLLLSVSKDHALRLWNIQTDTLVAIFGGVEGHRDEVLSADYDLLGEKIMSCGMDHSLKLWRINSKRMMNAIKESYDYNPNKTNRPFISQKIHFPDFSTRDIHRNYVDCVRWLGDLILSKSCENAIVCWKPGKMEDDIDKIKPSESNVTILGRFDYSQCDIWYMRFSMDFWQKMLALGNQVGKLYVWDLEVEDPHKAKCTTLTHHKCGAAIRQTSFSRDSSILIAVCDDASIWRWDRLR
Chain of WT EZH2 (EZH2 4 protein complex: EZH2, EED, SUZ12, RbAp48) (Q15022 whole entry partner): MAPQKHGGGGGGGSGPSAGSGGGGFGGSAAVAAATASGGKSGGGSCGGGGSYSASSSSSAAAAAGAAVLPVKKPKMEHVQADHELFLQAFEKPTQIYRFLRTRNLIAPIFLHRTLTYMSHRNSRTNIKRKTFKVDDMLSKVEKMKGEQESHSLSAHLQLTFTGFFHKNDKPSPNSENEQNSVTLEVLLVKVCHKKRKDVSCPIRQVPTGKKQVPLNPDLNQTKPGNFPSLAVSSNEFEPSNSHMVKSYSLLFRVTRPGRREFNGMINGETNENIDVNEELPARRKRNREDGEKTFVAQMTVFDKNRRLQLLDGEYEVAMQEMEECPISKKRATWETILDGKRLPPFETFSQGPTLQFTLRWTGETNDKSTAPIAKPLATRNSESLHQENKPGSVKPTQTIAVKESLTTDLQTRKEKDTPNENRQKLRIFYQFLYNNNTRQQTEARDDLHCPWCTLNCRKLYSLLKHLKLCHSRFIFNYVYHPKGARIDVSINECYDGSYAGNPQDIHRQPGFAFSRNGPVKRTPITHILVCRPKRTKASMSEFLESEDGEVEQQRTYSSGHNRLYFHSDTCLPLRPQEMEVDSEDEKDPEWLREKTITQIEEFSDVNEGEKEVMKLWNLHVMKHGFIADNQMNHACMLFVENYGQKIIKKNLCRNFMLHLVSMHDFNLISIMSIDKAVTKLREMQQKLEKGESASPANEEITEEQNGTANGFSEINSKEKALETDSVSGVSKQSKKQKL
Chain of WT EZH2 (EZH2 4 protein complex: EZH2, EED, SUZ12, RbAp48) (Q09028 whole entry partner): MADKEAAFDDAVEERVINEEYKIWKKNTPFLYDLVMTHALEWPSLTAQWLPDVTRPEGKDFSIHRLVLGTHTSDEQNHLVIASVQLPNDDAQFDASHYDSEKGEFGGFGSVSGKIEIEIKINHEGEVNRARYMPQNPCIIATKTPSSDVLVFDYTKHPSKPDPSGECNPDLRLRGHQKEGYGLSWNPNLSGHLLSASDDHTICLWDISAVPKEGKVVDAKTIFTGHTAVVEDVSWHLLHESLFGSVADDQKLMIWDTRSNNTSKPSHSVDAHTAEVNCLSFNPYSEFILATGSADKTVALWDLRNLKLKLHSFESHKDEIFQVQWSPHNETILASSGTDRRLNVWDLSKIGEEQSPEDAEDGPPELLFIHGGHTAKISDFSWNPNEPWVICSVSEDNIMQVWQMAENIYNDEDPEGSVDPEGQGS
Chain of EZH2PRC2 mutant Y641N (Q15910 whole entry Y641N): as the sequence (Q15910 whole entry) above, with Y641N counted along it
Chain of EZH2PRC2 mutant Y641N (O75530 whole entry partner): as the sequence (O75530 whole entry partner) above
Chain of EZH2PRC2 mutant Y641N (Q15022 whole entry partner): as the sequence (Q15022 whole entry partner) above
Chain of EZH2PRC2 mutant Y641N (Q09028 whole entry partner): as the sequence (Q09028 whole entry partner) above

| Compound | IC50 [1, 2] | IC50 (EZH2PRC2 mutant Y641N) | IC50 [1] |
| --- | --- | --- | --- |
| Cc1cc(C)c(CNC(=O)c2cccc(-c3ccnn3C)c2C)c(=O)[nH]1 [Example 2, N-[(4,6-dimethyl-2-oxo-1,2-dihydropyridin-3-yl)methyl]-2-methyl-3-(1-methyl-1H-pyrazol-5-yl)benzamide] | 340 nM | 5530 nM | – |
| CC(=O)N1C2CCC1c1cc(-c3cc(C(=O)NCc4c(C)cc(C)[nH]c4=O)c(C)c(-c4ccnn4C)c3)ccc12 (centres unmarked) [Example 6, 5-[9-acetyl-1,2,3,4-tetrahydro-1,4-epiminonaphthalene-6-yl]-N-[(4,6-dimethyl-2-oxo-1,2-dihydropyridin-3-yl)methyl]-2-methyl-3-(1-methyl-1H-pyrazol-5-yl)benzamide] | 22 nM | 820 nM | – |
| Cc1cc(C)c(CNC(=O)c2cc(-c3cnc(N(C)C)nc3)cc(-c3ccnn3C)c2C)c(=O)[nH]1 [Example 13, 5-[2-(dimethylamino)pyrimidin-5-yl]-N-[(4,6-dimethyl-2-oxo-1,2-dihydropyridin-3-yl)methyl]-2-methyl-3-(1-methyl-1H-pyrazol-5-yl)benzamide] | 38 nM | 620 nM | – |
| CNc1ncc(-c2cc(C(=O)NCc3c(C)cc(C)[nH]c3=O)c(C)c(-c3ccnn3C)c2)cn1 [Example 14, N-[(4,6-dimethyl-2-oxo-1,2-dihydropyridin-3-yl)methyl]-2-methyl-5-[2-(methylamino)pyrimidin-5-yl]-3-(1-methyl-1H-pyrazol-5-yl)benzamide] | 27 nM | 640 nM | – |
| CCCc1cc(C)[nH]c(=O)c1CNC(=O)c1cc(-c2cnn(C)c2)cc(OC(C)C)c1Cl [Example 27, 2-chloro-3-isopropoxy-N-[(6-methyl-2-oxo-4-propyl-1,2-dihydropyridin-3-yl)methyl]-5-(1-methyl-1H-pyrazol-4-yl)benzamide] | 290 nM | 5150 nM | – |
| Cc1cc(C)c(CNC(=O)c2ncnc(N3CCN(c4ncccn4)C[C@@H]3C)c2C)c(=O)[nH]1 [Example 31, (S)—N-((4,6-dimethyl-2-oxo-1,2-dihydropyridin-3-yl)methyl)-5-methyl-6-(2-methyl-4-(pyrimidin-2-yl)piperazin-1-yl)pyrimidine-4-carboxamide] | 140 nM | 1310 nM | – |

More lines, now with the values ahead:

| IC50 [1, 2] | IC50 (EZH2PRC2 mutant Y641N) | IC50 [1] | Compound |
| --- | --- | --- | --- |
| – | 300 nM | 35 nM | CNc1ncc(-c2cc(C(=O)NCc3c(C)cc(C)[nH]c3=O)c(C)c(-c3c(C)cnn3C)c2)cn1 [Example 15, N-[(4,6-dimethyl-2-oxo-1,2-dihydropyridin-3-yl)methyl]-3-(1,4-dimethyl-1H-pyrazol-5-yl)-2-methyl-5-[2-(methylamino)pyrimidin-5-yl]benzamide] |
| 84 nM | 1330 nM | – | Cc1cc(C)c(CNC(=O)c2cc(-c3cnc(N)nc3)cc(-c3ccnn3C)c2C)c(=O)[nH]1 [Example 16, 5-(2-aminopyrimidin-5-yl)-N-[(4,6-dimethyl-2-oxo-1,2-dihydropyridin-3-yl)methyl]-2-methyl-3-(1-methyl-1H-pyrazol-5-yl)benzamide] |
| 27 nM | 750 nM | – | Cc1cc(C)c(CNC(=O)c2cc(-c3cnc(N4C[C@@H]5C[C@H]4CO5)nc3)cc(-c3c(C)cnn3C)c2C)c(=O)[nH]1 [Example 22, N-[(4,6-dimethyl-2-oxo-1,2-dihydropyridin-3-yl)methyl]-3-(1,4-dimethyl-1H-pyrazol-5-yl)-2-methyl-5-{2-[(1S,4S)-2-oxa-5-azabicyclo[2.2.1]hept-5-yl]pyrimidin-5-yl}benzamide] |
| 22 nM | 550 nM | – | Cc1cc(C)c(CNC(=O)c2cc(-c3cnc(N4CC(F)C4)nc3)cc(-c3c(C)cnn3C)c2C)c(=O)[nH]1 [Example 24, N-[(4,6-dimethyl-2-oxo-1,2-dihydropyridin-3-yl)methyl]-3-(1,4-dimethyl-1H-pyrazol-5-yl)-5-[2-(3-fluoroazetidin-1-yl)pyrimidin-5-yl]-2-methylbenzamide] |
